Experimental data from EP2999467B1, “USE OF A COMBINATION OF TWO COMPOUNDS FOR THE TREATMENT AND/OR PREVENTION OF BONE DISORDERS” (Institut National de la Recherche Agronomique (INRA), priority 2013, dated 2014).
Like-named read-outs stand apart in the source and are kept apart here.

Assays:
[1] = test system: ostéocalcine sérique; assay: Ovariectomy-induced bone loss: serum osteocalcin (ELISA); assay type: in vivo, souris C57BL/6J; conditions: daily Fisétine 25mg/kg by gavage
Protocol: Tout au long de l'étude, les animaux ont été logés dans un environnement contrôlé (12:12 h cycle lumière-obscurité, 20-22 ° C, 50-60% d'humidité relative, 1 souris par cage en plastique avec un accès libre à l'eau. Les souris C57BL/6J ont été livrées 2 semaines avant l'étude pour l'acclimatation à notre environnement sous régime standard semi-purifié. Pour toutes les expériences, les souris de 8 semaines (n=12/groupe) ont été gavées avec le véhicule (1% d'éthanol, 0,2% hydroxypropylcellulose dans de l'eau distillée) ou avec la fisétine (5 à 50 mg/kg dans le véhicule) pendant une semaine. Ensuite, pour l'expérience OVX, les souris ont été pseudo-opérées ou ovariectomisées bilatéralement et ont reçu quotidiennement par gavage le véhicule ou la fisétine pendant 4 semaines. A la fin de l'expérimentation, le sérum, les cornes utérines, les tibias et les fémurs ont été recueillis pour analyse. Pour l'expérience de perte osseuse induite par LPS, le véhicule (PBS) ou le LPS (sérotype 026: B6, 25mg/kg) ont été injectés par voie sous-cutanée au niveau de la calotte crânienne, une fois par semaine pendant 3 semaines sous anesthésie. Durant ces 3 semaines, les souris ont reçu soit le véhicule (1% d'éthanol, 0,2% hydroxypropylcellulose dans de l'eau distillée) soit la fisétine quotidiennement par gavage. […]

[2] = test system: collagène de type 1; assay: Quantitative RT-PCR, osteoblast differentiation marker: type 1 collagen; assay type: cell-based, rats Wistar; conditions: Rattus norvegicus; for activation at 5 µM: AA+βGP+Fisétine 5µM
Description: (§1) Les préostéoblastes primaires ont été isolés à partir de la calotte crânienne de rats Wistar nouveaux-nés par digestion enzymatique comme précédemment décrit [Declercq, H., Van den Vreken, N., De Maeyer, E., Verbeeck, R., Schacht, E., De Ridder, L., and Cornelissen, M. (2004). Isolation, proliferation and differentiation of osteoblastic cells to study cell/biomaterial interactions: comparison of different isolation techniques and source. Biomaterials 25, 757-68.]. Les précurseurs d'ostéoclastes RAW264.7 ont été obtenus auprès de l'ATCC (Manassas, VA, USA). Les préostéoblastes et les RAW264.7 ont été cultivés dans du milieu α-MEM (Invitrogen, Carlsbad, CA, USA) supplémenté avec 10% de SVF décomplémenté et de 100 unités/ml de pénicilline-streptomycine.
L'extraction des ARN totaux (cellules et fémurs) a été effectuée en utilisant le réactif TRIzol, la transcription inverse (RT) a été réalisée à l'aide du kit de synthèse d'ADNc Dynamo (Thermo Scientific, Waltham, MA, USA) et l'analyse PCR en temps réel a été réalisée avec le Mastercycler ep Realplex2 (Eppendorf, Hambourg, Allemagne). Toutes les valeurs ont été normalisées par la GAPDH. Les séquences des oligos utilisés sont : ALP F 5'-GGCCAGCTACACCACAACA-3' / ALP R 5'-[…] -3' / OCN F 5'-AGACTCCGGCGCTACCTT -3' / OCN R 5'-[…]-3'/ COL1 F 5'-[…]-3' / COL1 R 5'-[…]-3' / GAPDH F 5'-[…]-3' / GAPDH R 5'-[…]-3'

[3] = test system: perte osseuse induite par ovariectomie; assay: Ovariectomy-induced bone loss: bone micro-architecture (micro-CT); assay type: in vivo, souris C57BL/6J
Protocol: Tout au long de l'étude, les animaux ont été logés dans un environnement contrôlé (12:12 h cycle lumière-obscurité, 20-22 ° C, 50-60% d'humidité relative, 1 souris par cage en plastique avec un accès libre à l'eau. Les souris C57BL/6J ont été livrées 2 semaines avant l'étude pour l'acclimatation à notre environnement sous régime standard semi-purifié. Pour toutes les expériences, les souris de 8 semaines (n=12/groupe) ont été gavées avec le véhicule (1% d'éthanol, 0,2% hydroxypropylcellulose dans de l'eau distillée) ou avec la fisétine (5 à 50 mg/kg dans le véhicule) pendant une semaine. Ensuite, pour l'expérience OVX, les souris ont été pseudo-opérées ou ovariectomisées bilatéralement et ont reçu quotidiennement par gavage le véhicule ou la fisétine pendant 4 semaines. A la fin de l'expérimentation, le sérum, les cornes utérines, les tibias et les fémurs ont été recueillis pour analyse. Pour l'expérience de perte osseuse induite par LPS, le véhicule (PBS) ou le LPS (sérotype 026: B6, 25mg/kg) ont été injectés par voie sous-cutanée au niveau de la calotte crânienne, une fois par semaine pendant 3 semaines sous anesthésie. Durant ces 3 semaines, les souris ont reçu soit le véhicule (1% d'éthanol, 0,2% hydroxypropylcellulose dans de l'eau distillée) soit la fisétine quotidiennement par gavage. A la fin de l'expérimentation, le sérum, les tibias et les fémurs ont été recueillis pour analyse. Des expériences similaires ont été conduites et arrêtés 24 heures après la première injection de LPS et les fémurs ont été prélevés pour extraction des ARNs et l'analyse en qRT-PCR.
Pour effectuer une mesure, l'échantillon a été monté sur un plateau tournant pouvant être déplacé automatiquement dans le sens axial (pas angulaire: 0,675°/reconstruction plage angulaire: 186.30°). Un filtre en aluminium (0,5 mm d'épaisseur) a été placé entre la source de rayons X et l'échantillon. La micro-architecture (spongieuse secondaire) a été analysée en utilisant le rayonnement X micro-CT SkyScan 1072 (BRUKER-microCT, Kontich, Belgique). Des photos de 1024 * 1024 pixels ont été obtenues en utilisant les paramètres 37kV et 215µA. Selon les paramètres de la caméra, les pixels mesurent 5.664µm menant à un voxel de 1.817 * 10-7mm^3. Le calcul des paramètres histomorphométriques a été réalisé en utilisant les logiciels ctan ® et Nrecon ® (version 1.11. Et 1.6.1.7 respectivement).

[4] = test system: préostéoblastes primaires; assay: ALP activity measurement in differentiating osteoblasts; assay type: cell-based, rats Wistar; conditions: Rattus norvegicus, Osteoblast, read-out: activité ALP par rapport à la condition « AA+βGP seuls »
Description: as §1
Les préostéoblastes primaires ont été ensemencés à 3500 cellules par puits dans des plaques 96 puits traitées au collagène. Trente-six heures plus tard, les cellules ont été prétraitées avec du DMSO comme témoin ou de la fisétine (1 à 5 µM) pendant 12 heures, puis induites à se différentier avec 25 µg/ml d'acide ascorbique et 5 mM de bêta-glycérophosphate en présence de DMSO ou de fisétine (1 à 5 µM). L'activité enzymatique ALP a été mesurée en cinétique après 0, 5, 7 et 12 jours de traitement avec un changement de milieux tous les 2 jours. Les cellules ont été lysées par des cycles de gel-dégel et les lysats ont subi une homogénéisation dans 200 µl de tampon chlorure de magnésium hexahydrate, di-éthanoamine à un pH de 9,8. Les lysats cellulaires (10 µl) ont été ajoutés à 200 µl de solution de p-nitrophényl phosphate (16,2 mM) et l'absorbance a été mesurée en utilisant un lecteur de microplaques à 405 nm toutes les 90 seconds pendant 30min. Pour chaque échantillon, la concentration de protéines a été analysée pour exprimer les résultats sous forme de µmol de p-nitrophenol/heure/mg de protéines.

O=c1c(O)c(-c2ccc(O)c(O)c2)oc2cc(O)ccc12 [Fisétine, 3,3',4',7-tétrahydroxyflavone]
taux sérique d'ostéocalcine par rapport à la condition témoin « SH » [1]: +61% | activation at 1 µM ([2]; 168 h, AA+βGP+Fisétine 1 µM, J7, read-out: expression du collagène de type 1 par rapport à la condition « AA+βGP seuls »): 34% | activation at 5 µM ([2]; 168 h, J7, read-out: expression du collagène de type 1 par rapport à la condition « AA+βGP seuls »): 80% | activation at 1 µM ([2]; 336 h, AA+βGP+Fisétine 1µM, J14, read-out: expression du collagène de type 1 par rapport à la condition « AA+βGP seuls »): 60% | activation at 5 µM ([2]; 336 h, J14, read-out: expression du collagène de type 1 par rapport à la condition « AA+βGP seuls »): 138% | augmentation de l'épaisseur des trabécules par rapport aux animaux OVX ([3]; OVX + Fisétine 25 mg/kg): 3,55% | augmentation du nombre de trabécules par rapport aux animaux OVX ([3]; OVX + Fisétine 25 mg/kg): 16,31% | augmentation du volume osseux/volume total par rapport aux animaux OVX ([3]; OVX + Fisétine 25 mg/kg): 20,37% | Nombre de trabécules ([3]; OVX + Fisétine 25mg/kg, OVX 1.90 ± 0.22): 2.21 ± 0.12 mm^-1 | Volume osseux/Volume total ([3]; OVX + Fisétine 25mg/kg, OVX 13.40 ± 1.74): 16.13 ± 0.96% | Epaisseur des trabécules ([3]; OVX + Fisétine 25mg/kg, OVX 70.35 ± 1.295): 72.85 ± 1.563 µm | Espace inter-trabéculaire ([3]; OVX + Fisétine 25mg/kg, OVX 285.68 ± 54,69): 265.50 ± 29.41 µm | activation at 1 µM ([4]; AA+βGP+Fisétine 1 µM): 32% | activation at 5 µM ([4]; AA+βGP+Fisétine 5µM): 87% | activation at 2.5 µM ([4]; AA+βGP+Fisétine 2,5µM): 63%
